{"source": "paper PMC11449324", "about": "“Functional comparison of human and murine equilibrative nucleobase transporter 1” (PLOS ONE, 2024)", "key": {"[1]": {"target": "T1, hENBT1 (SLC43A3-encoded human ENBT1) (Homo sapiens, UniProt Q8NBI5)", "T1 construct": "Oligonucleotides corresponding to the coding region of SLC43A3 (NM_001278201) or slc43a3 (NM_021398); expressed in transfected cells; HEK293-hSLC43A3", "T1 sequence (Q8NBI5 1-491)": "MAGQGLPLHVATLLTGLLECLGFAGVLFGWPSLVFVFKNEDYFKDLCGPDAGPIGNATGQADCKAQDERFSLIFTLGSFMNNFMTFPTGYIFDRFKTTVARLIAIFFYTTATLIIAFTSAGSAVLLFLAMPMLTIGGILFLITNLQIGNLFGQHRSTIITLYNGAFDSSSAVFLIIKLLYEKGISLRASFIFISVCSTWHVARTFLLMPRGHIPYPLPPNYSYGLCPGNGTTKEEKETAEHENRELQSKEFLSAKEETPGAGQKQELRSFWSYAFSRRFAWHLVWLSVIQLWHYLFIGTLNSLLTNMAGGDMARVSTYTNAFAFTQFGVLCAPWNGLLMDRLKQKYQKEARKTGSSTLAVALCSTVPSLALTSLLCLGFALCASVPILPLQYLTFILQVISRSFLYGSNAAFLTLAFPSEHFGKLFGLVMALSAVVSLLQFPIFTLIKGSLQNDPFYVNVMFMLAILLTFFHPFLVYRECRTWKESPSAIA", "assay": "Radiolabelled substrate uptake (oil-stop, 2 s) in HEK293-hSLC43A3 cells", "assay_type": "cell-based", "experimental": "(§1) Harvested cells were suspended in nominally sodium-free N-methyl-D-glucamine (NMG) buffer (140 mM NMG, 5 mM KCl, 4.2 mM KHCO3, 0.36 mM K2HPO4, 0.44 mM KH2PO4, 0.5 mM MgCl2, 1.3 mM CaCl2, 10 mM HEPES, pH 7.4), to minimize potential contribution of sodium-dependent concentrative nucleoside transporter-mediated uptake. Additionally, cells were incubated for 15 minutes at room temperature with 10 μM dipyridamole (DY), an equilibrative nucleoside transporter (ENT) inhibitor, to block equilibrative nucleoside transporter–mediated uptake. The substrate uptake assay was initiated by adding 250 μL cell suspension to 250 μL [^3H] labeled substrate, layered over 21:4 silicone:mineral oil (200 μL) in 1.5 mL microcentrifuge tubes (conducted at room temperature). The uptake reaction was terminated after 2 seconds by centrifugation of the cells through the oil layer at ~10,000 g. […] The resulting cell pellet was digested in 250 μL 1 M NaOH overnight (~16 hours), with 220 μL aliquots of digested cells assessed for radioactive content using standard liquid scintillation counting techniques in a Beckman Coulter LS6500 scintillation system (Brea, CA).\n(§2) In transfected-HEK293 cell lines, total uptake was defined as uptake of radiolabeled substrate in cells overexpressing recombinant hENBT1 or mENBT1. […] ENBT1-mediated uptake was calculated as total uptake minus the non-mediated uptake. […]"}, "[2]": {"target": "T2, mENBT1 (slc43a3-encoded mouse ENBT1) (Mus musculus, UniProt A2AVZ9)", "T2 construct": "Oligonucleotides corresponding to the coding region of SLC43A3 (NM_001278201) or slc43a3 (NM_021398); expressed in transfected cells; HEK293-mslc43a3", "T2 sequence (A2AVZ9 1-502)": "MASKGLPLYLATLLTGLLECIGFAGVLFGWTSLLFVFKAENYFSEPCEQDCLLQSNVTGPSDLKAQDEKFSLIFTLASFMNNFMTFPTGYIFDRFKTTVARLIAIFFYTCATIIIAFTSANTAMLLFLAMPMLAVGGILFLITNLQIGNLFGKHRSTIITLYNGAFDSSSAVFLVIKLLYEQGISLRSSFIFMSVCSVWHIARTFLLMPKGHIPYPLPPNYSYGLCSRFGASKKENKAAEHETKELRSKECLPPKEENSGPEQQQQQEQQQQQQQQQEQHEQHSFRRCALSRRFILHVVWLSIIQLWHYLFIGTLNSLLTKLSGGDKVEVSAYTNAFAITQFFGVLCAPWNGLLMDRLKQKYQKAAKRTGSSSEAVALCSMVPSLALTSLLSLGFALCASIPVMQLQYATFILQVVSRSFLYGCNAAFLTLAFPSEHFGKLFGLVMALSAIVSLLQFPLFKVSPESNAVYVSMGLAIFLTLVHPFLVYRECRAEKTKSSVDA", "assay": "Radiolabelled substrate uptake (oil-stop, 2 s) in HEK293-mslc43a3 cells", "assay_type": "cell-based", "experimental": "as §1, §2"}, "L1210 cells": {"tested_on": "L1210 cells", "assay": "MTT cell viability assay, L1210", "assay_type": "cell-based, murine", "details": "Mus musculus, L1210, 48 h, single-phase curve", "experimental": "(§3) Transfected-HEK293, MOLT-4, and L1210 cells were seeded into 24-well plates at a density of 1.1x10^5 cells per well in complete culture medium. […] Medium containing no cells was used to determine spontaneous MTT reduction (background). In transfected-HEK293 cells, media was removed via a vacuum-powered aspirator and replaced with 150 μL of Dulbecco’s phosphate buffered saline (DPBS—137 mM NaCl, 2.7 mM KCl, 6.3 mM Na2HPO4, 1.5 mM KH2PO4, 0.5 mM MgCl2, 0.9 mM CaCl2, pH 7.4) containing MTT (1 mg/mL) for 90 minutes at 37°C. In MOLT-4 and L1210, cell suspension was transferred to 1.5 mL microcentrifuge tubes and centrifuged for 10 minutes at 3000 rcf. Following centrifugation, media was removed via gentle pipetting and replaced with 150 μL of DPBS containing MTT (1 mg/mL) for 90 minutes at 37°C. Microcentrifuge tubes were centrifuged again for 15 minutes at 23,500 rcf, and then DPBS containing MTT was removed via a vacuum-powered aspirator. The resultant formazan crystals were solubilized in 500 μL of DMSO and transferred to a 96-well plate in 200 μL duplicates. Absorbance was measured at 570 nm, in a SpectraMax® i3x Multi-Mode Detection Platform (Molecular Devices, San Jose, CA). After background subtraction, % cell viability was calculated as the ratio of absorbance in the presence of test compound to that measured with vehicle alone (X 100)."}, "HEK293-mslc43a3 cells": {"tested_on": "HEK293-mslc43a3 cells", "assay": "MTT cell viability assay, HEK293-mslc43a3", "assay_type": "cell-based, human", "experimental": "as §3"}}}
{"smiles": "Sc1ncnc2nc[nH]c12", "note": "[6-MP, 6-Mercaptopurine]", "values": [{"measurement": "6-MP Km relative to adenine Km", "setting": "[1]", "result": 3, "unit": "fold"}, {"measurement": "6-MP Vmax relative to adenine Vmax", "setting": "[1]", "result": 3, "unit": "fold"}, {"measurement": "6-MP Km relative to adenine Km", "setting": "[2]", "result": 3, "unit": "fold"}, {"measurement": "6-MP Vmax relative to adenine Vmax", "setting": "[2]", "result": 3, "unit": "fold"}, {"measurement": "EC50", "setting": "L1210 cells", "result": "600 ± 200", "unit": "nM"}, {"measurement": "shift in EC50 (increased sensitivity) relative to HEK293-EV cells", "setting": "HEK293-mslc43a3 cells; HEK293-mslc43a3 vs HEK293-EV", "result": 19, "unit": "fold"}, {"measurement": "EC50", "setting": "HEK293-mslc43a3 cells; Homo sapiens, HEK293-mslc43a3, 48 h, MTT, first-phase EC50 where biphasic", "result": "960 ± 280", "unit": "nM"}]}
